From ChEMBL document CHEMBL2046410, “Computational design and discovery of "minimally structured" hERG blockers” (J Med Chem, 2012)

The compounds below were run against Voltage-gated inwardly rectifying potassium channel KCNH2 (Homo sapiens, UniProt Q12809) (assay: Inhibition of human ERG expressed in HEK cells by patch clamp assay). Details: read-out: IC50.
Type: cell-based, HEK293

Chain of Voltage-gated inwardly rectifying potassium channel KCNH2 (Q12809 whole entry): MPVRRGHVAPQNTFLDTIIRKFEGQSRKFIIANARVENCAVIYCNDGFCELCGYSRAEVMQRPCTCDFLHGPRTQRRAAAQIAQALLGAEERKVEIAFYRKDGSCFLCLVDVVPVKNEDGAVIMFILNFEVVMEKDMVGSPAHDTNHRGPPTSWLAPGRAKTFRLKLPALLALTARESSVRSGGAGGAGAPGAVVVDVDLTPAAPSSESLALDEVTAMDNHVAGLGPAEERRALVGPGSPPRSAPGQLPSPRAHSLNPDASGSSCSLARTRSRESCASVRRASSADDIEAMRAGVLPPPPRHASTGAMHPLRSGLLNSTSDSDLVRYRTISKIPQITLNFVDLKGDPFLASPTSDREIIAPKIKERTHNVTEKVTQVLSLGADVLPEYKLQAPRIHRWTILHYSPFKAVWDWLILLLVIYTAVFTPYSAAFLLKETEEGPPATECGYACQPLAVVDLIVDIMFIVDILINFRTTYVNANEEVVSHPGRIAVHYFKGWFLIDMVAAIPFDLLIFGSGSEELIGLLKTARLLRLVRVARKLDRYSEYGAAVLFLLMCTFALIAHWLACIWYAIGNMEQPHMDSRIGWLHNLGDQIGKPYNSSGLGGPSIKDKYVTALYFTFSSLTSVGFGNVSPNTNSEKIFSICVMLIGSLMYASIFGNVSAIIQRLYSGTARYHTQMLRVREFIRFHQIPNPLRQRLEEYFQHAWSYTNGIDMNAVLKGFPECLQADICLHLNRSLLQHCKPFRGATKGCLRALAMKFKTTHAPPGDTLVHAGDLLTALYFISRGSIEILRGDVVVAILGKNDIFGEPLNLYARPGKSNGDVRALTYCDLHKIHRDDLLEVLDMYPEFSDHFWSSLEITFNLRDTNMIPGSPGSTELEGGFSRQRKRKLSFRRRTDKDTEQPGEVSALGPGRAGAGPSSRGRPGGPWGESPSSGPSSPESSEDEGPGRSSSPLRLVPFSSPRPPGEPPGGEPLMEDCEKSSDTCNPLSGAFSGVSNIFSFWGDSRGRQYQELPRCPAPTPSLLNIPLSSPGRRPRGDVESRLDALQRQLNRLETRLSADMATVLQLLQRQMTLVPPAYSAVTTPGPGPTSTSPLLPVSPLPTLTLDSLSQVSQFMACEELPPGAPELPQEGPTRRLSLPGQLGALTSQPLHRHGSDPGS

SMILES	IC50 [nM]
c1ccc(CCNCCC(c2ccccc2)c2ccccc2)cc1	2790
c1ccc(CCCNCCC(c2ccccc2)c2ccccc2)cc1	17
c1ccc(CCCNCCN(c2ccccc2)c2ccccc2)cc1	580
Fc1ccc(N(CCNCCCc2ccccc2)c2ccc(F)cc2)cc1	2.4
O=C(Cc1ccccc1)NCCN(c1ccccc1)c1ccccc1	7860
O=C(CCc1ccccc1)NCCN(c1ccc(F)cc1)c1ccc(F)cc1	192

Same assay, conditions: read-out: pIC50 (converted)

SMILES	IC50 [nM]
c1ccc(CCNCCC(c2ccccc2)c2ccccc2)cc1	3160
